Key:
venous ulcer = assay: Open wound healing in a patient with incurable venous ulcer; assay type: in vivo, human; conditions: 1% BAC-3 ointment twice daily during 41 days
Procedure: The BAC-3 rhamnolipid was tested in the case of open wound healing, in a patient suffering around ten years from incurable venous ulcer. On the left leg, the patient had very thick layers of collagen with fibrotic lesions. […] Moreover, after treatment was finished, not only the collagen, but also the fibrotic lesions had disappeared as well. One year after the treatment, the treated skin lesions on the left leg appear normal, and all skin collagen and fibrotic layers had disappeared.

[1] = tested on: neonatal human fibroblast cells; assay: Caspase detection in neonatal human fibroblast cells in FM, fluorescence spectroscopy; assay type: cell-based; conditions: fibroblasts in FM
Source text: The procedure for caspase detection in neonatal human fibroblast cells in fibroblast growth medium FM* treated with BAC-3 using fluorescence spectroscopy.
Note: CaspaTag Fluorescein Caspase Activity Kit (Intergen Company) was used to detect active caspase enzymes with fluorescent spectroscopy. All solutions, except cell medium and PBS, were included with the kit.
12 vials of neonatal human fibroblasts, NHF97-001 passage #3 (prepared as described in section 2.1.a), were retrieved from a liquid N2 chamber. Closed vials were quickly defrosted in a small amount of 37° C., 75% ethanol. […]
Di-rhamnolipid BAC-3 was weighed on the precision balance (Mettler AC100) and dissolved in FM medium to make an aqueous 1 mg/ml di-rhamnolipid BAC-3 stock solution. […] The remaining 9 plates were used as controls: 3 plates for positive apoptosis control (apoptosis induction by UVB+antibody), 3 plates for BAC-3 untreated control and 3 plates for fluorescence control (FAM-VAD-FMK unlabelled cells). […]
On day 6, treatment with BAC-3 was completed and cells were trypsinized and collected into 50 ml centrifuge tubes. Cells were counted using a hemacytometer and a trypan blue exclusion test and densities were adjusted to 1.0×10^6 cells per ml of FM medium. […]

## CCCCCCCC(CC(=O)O)OC(=O)CC(CCCCCCC)OC1OC(C)C(O)C(O)C1OC1OC(C)C(O)C(O)C1O [BAC-3, (α-L-rhamnopyranosyl-(1,2)-α-L-rhamnopyranosyl)-3-hyroxydecanoyl-3-hydroxydecanoic acid]
Venous ulcer; after treatment and one year later
  collagen and fibrotic lesions after treatment: disappeared
Venous ulcer; one patient, venous ulcer, left leg
  patient's condition: significantly improved
[1]; 6 days, tested 100, 50, 10 and 1 μg/ml
  optimal concentration for inducing apoptosis (caspase activity peak): 50 µg/mL
[1]; higher concentrations of BAC-3 (detergent effect)
  mechanism of cell death at higher concentrations: cell necrosis

From patent publication US7129218B2, “Use of rhamnolipids in wound healing, treatment and prevention of gum disease and periodontal regeneration” (Paradigm Biomedical, Inc., priority 1999, dated 2006)
